Experimental data reported in US20260242490A1, “METHODS OF TREATING NAFLD AND NASH” (CytoDyn Inc., priority 2022, published 2026).
Several values for one entry are separate records, joined by “and”; a condition that tells them apart may be missing. Identical values can stand only once. Marks after values point to notes of the source that are not given here.

Assays:
hepatic fat fraction = test: CDI-NASH-01 clinical study, MRI-PDFF; assay type: in vivo, human; details: for MRI PDFF: change baseline to week 14; for Mean percent change from baseline PDFF: 700 mg SC weekly (n=22), baseline to week 14
Procedure: (§1) Eligible patients included adults aged between 18 to 75 years (inclusive), with evidence of phenotype nonalcoholic steatohepatitis (NASH). […] A stable body weight (±5%) was required during the 6 months prior to screening. Exclusion criteria include but were not limited to HIV, autoimmune hepatitis, excess alcohol use, viral hepatitis, and prior or pending liver transplantation. No patients in the 350 mg study were concomitantly treated with semaglutide, while 18% of patients in the placebo group were concomitantly treated with semaglutide.
(§2) There were 21 patients in cT1 analysis and 22 for PDFF analysis. One patient obtained PDFF at End of Treatment but MRI for cT1 despite repeat was not able to quality (by 3 cuts) so no results for cT1 were obtained on that patient.
The primary efficacy objective of the study was the change from baseline in hepatic fat fraction, assessed by magnetic resonance imaging-derived proton density fat fraction (MRI-PDFF) at week 14.

serum cK18 and K18 = test: CDI-NASH-01 clinical study, M30-M65 ELISA; assay type: in vivo, human
Description: (§3) The secondary efficacy objective was the change from baseline in fibro-inflammatory activity in the liver as assessed by cT1 (corrected T1) at week 14. cT1 is obtained by multiparametric magnetic resonance imaging of the liver and is a quantitative metric for assessing a composite of liver inflammation and fibrosis, expressed in milliseconds (msec). Additional objectives were change from baseline in LFT, chemokine and cytokine levels and key biomarkers of inflammation to week 14. In particular, change in serum cK18 and K18 by M30-M65 ELISA was assessed at week 14.

[1] = tested on: NASH patients by CCR5 haplotype; test: CDI-NASH-01 clinical study, treatment outcome by CCR5 haplotype; assay type: in vivo, human
Description: CCR5 haplotype was investigated for 5 patients. Haplotypes with very high transcription and thus high cell surface expression of CCR5 include HHE/HHE and HHG1/HHG1. High transcription alleles when combined with a null allele delta 32 or HHG2 will default to the heterozygous allele such that HHE/HHG2 and HHG1/HHG2 would also be high transcribers for CCR5.
CCR5 transcriptional activity and disease progression can be slowed or accelerated. Surface CCR5 expression level also played a part in NASH disease progression and specific CCR5 haplotypes correlated with dose and treatment outcomes.
All patients appeared to benefit from a dose that lowered RANTES (CCL5) levels to approximately zero.

CCR5 = CCR5 (Homo sapiens, UniProt P51681); details: CCR5+ cells; cited from earlier work
CCR5, sequence (P51681 whole entry): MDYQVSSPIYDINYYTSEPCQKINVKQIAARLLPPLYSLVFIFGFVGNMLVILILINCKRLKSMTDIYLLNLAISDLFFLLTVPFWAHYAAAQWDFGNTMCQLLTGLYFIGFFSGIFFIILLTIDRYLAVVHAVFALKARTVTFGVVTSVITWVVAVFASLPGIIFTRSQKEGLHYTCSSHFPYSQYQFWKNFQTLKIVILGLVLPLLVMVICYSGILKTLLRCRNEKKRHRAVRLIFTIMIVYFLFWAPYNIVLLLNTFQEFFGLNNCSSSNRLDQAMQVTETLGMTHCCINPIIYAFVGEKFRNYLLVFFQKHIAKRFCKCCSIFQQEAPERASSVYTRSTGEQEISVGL

[2] = tested on: fibro-inflammatory activity in the liver; test: CDI-NASH-01 clinical study, MRI cT1; assay type: in vivo, human; details: 350 mg SC weekly, all patients (n = 22), change baseline to week 14
CCR5-expressing cells = details: cited from earlier work
[3] = tested on: NSG mice fed a high fat NASH-inducing diet; test: Humanized NSG mice on high fat NASH-inducing diet, Oil Red O liver sections; assay type: in vivo, mouse
Procedure: 16 male were first humanized by intravenous inoculation with normal human umbilical cord blood cells. […] Mice were switched to a high fat (52%), high cholesterol (1.25%) diet. (FPC diet: fructose, palmitate, cholesterol, trans-fat; Envigo-Teklad TD.160785). […] Mice were euthanized at 16 weeks after initiation of the high fat, high cholesterol diet.
Liver sections were analyzed for indicators of NAFLD. […] Regions of interest were identified in micrographs and digitized using an Aperio AT2 slide scanner (Leica Biosystems), then analyzed using QuPath v0.2.01 imaging software. […] Percent positivity in IgG treated group was 9.751±1.789. […] Student's t test p=0.014. Steatosis was numerically scored following a semi-quantitative pathological standard.

[4] = tested on: fibro-inflammatory activity in the liver; test: CDI-NASH-01 clinical study, MRI cT1; assay type: in vivo, human; details: for Mean change cT1: baseline to week 14; for MRI cT1: change baseline to week 14
Procedure: as §1, §2, §3

[5] = tested on: LFT, chemokine and cytokine levels and key biomarkers of inflammation; test: CDI-NASH-01 clinical study, serum analysis of biomarkers; assay type: in vivo, human
Description: as §3

[6] = CDI-NASH-01 clinical study, safety and tolerability; assay type: in vivo, human
Description: The secondary objective of this study was to assess the safety and tolerability of leronlimab in adult patients diagnosed with NASH compared to placebo.
(See FIG. 3 and FIG. 4.) There was no grade 3 or higher drug related treatment emergent adverse event.

HIV-1 = details: in vitro and hu-PBL-SCID mouse model; at concentrations that do not affect CCR5 chemokine receptor activity; cited from earlier work
[7] = 350 mg SC weekly, baseline cT1 ≥ 875 (n = 14)
[8] = 350 mg SC weekly, baseline cT1 ≥ 950 (n = 8)
[9] = 350 mg, patients with baseline elevated ALT (n=8)
[10] = 700 mg group with genetic haplotypes known to over produce CCR5, post hoc analysis
[11] = 700 mg, haplotypes associated with increased CCR5 expression
[12] = 700 mg, patients with increased CCR5 cell surface levels
[13] = 350 mg SC weekly, all patients (n = 22), change baseline to week 14
[14] = 350 mg SC weekly, baseline cT1 ≥ 875 (n = 14), change baseline to week 14
[15] = 350 mg SC weekly, baseline cT1 ≥ 950 (n = 8), change baseline to week 14
[16] = placebo patients concomitantly treated with semaglutide (n = 5)
[17] = placebo patients concomitantly treated with semaglutide (n = 5), change baseline to week 14

In the case of “leronlimab: humanized IgG4 monoclonal antibody that binds to CCR5; humanized version of murine antibody PA14”, the “MRI PDFF” value (hepatic fat fraction; 350 mg SC weekly, all patients (n = 22)) is reported as “significantly reduced”, the “MRI PDFF” value (hepatic fat fraction; [7]) is reported as −4.37% and −4.38* % and the “MRI PDFF” value (hepatic fat fraction; [8]) is reported as −9.39% and −9.27* %. The PDFF change (hepatic fat fraction; [9]) was −18%, the “Mean percent change from baseline PDFF” value (hepatic fat fraction) was “+3.75%” and the “Mean percent change from baseline PDFF” value (hepatic fat fraction; listed as Leronlimab) was “did not reduce”. The “mean percent PDFF change” value (hepatic fat fraction; [10]) was −27.9%, the PDFF decrease (hepatic fat fraction; [11]) was 28% and the steatosis (hepatic fat fraction; [11]) was “Improvements”. The “M65 ELISA (cK18 and K18), mean change baseline to week 14” value (serum cK18 and K18; 350 mg group) was −8.18 U/L, the “M65 ELISA (cK18 and K18), mean at week 14” value (serum cK18 and K18; 350 mg group, baseline 340.55) was 332.4 U/L and the CK18 (serum cK18 and K18; [11]) was “statistically significant reductions”. For the same substance, the M30 (serum cK18 and K18; [12]) was “statistically significant reductions”, the M65 (serum cK18 and K18; [12]) was “statistically significant reductions” and the treatment effect ([1]; 350 mg, haplotypes correlated with low to normal surface expression of CCR5) was “benefited”. For the same substance, the treatment effect ([1]; 700 mg or 350 mg, haplotypes correlated with high surface expression of CCR5, greater at 700 mg) was “positive effects”, the treatment effect ([1]; 700 mg, haplotypes correlated with low to normal surface expression of CCR5) was “negative effects” and the “IC50 of CCL5-induced calcium mobilization” value (CCR5) was 45 µg/mL. The “MRI cT1” value [2] was “significantly reduced”, the “CCR5 surface expression / depletion of CCR5-expressing cells” value (CCR5-expressing cells) was “does not downregulate CCR5 surface expression or deplete CCR5-expressing cells” and the fatty liver development ([3]; 2 mg i.p. twice weekly) was “inhibited”. The “presence of fat in the liver, Oil Red O stain” value ([3]; 2 mg i.p. twice weekly vs IgG) was “markedly reduced”, the “Mean change cT1” value ([4]; 350 mg SC weekly, all patients) was -24.38 ms and the “MRI cT1” value [4, 7] was −42.00**. For the same substance, the “MRI cT1” value [4, 8] was −68.86**, the “Mean change cT1” value ([4]; 350 mg subgroup with baseline cT1≥875 ms) was -42.00 ms and the cT1 change [4, 9] was -69 ms. For the same substance, the “Mean change cT1” value ([4]; 700 mg SC weekly) was -2.73 ms, the “Mean change cT1” value ([4]; 700 mg SC weekly, listed as Leronlimab) was “did not reduce” and the “mean cT1 change” value [4, 10] was -45.4 ms. For the same substance, the Alpha-2-Mactoglobulin s [5, 13] was 8.96 mg/mL, the “Gamma Glutamyl Transferase (GGT) s” value [5, 13] was −1.3 U/L and the “Alkaline Phosphatase” value [5, 14] was −3.16 IU/L. For the same substance, the “Apolipoprotein A1S” value [5, 14] was 9.2 mg/dL, the “Aspartate Aminotransferase (AST) s” value [5, 14] was −5.5 U/L and the “CCL2 (Monocyte Chemotactic Protein-1)” value [5, 14] was -95.53 pg/mL. For the same substance, the “CCL3 (Macrophage Inflammatory Protein-1 Alpha)” value [5, 14] was −7.14*** pg/mL, the “CCL5 (RANTES)” value [5, 14] was −7.8 and the “CCL11 (Eosinophil Chemotactic Protein)” value [5, 14] was -15.21 pg/mL. The “CCL18 (Macrophage Inflammatory Protein-4)” value [5, 14] was −32.1** ng/mL, the “EN RAGE (Receptor Advanced Glycation End-Products)” value [5, 14] was −115.50** ng/mL and the “IL-1 (Interleukin 1) Beta” value [5, 14] was 0.00 pg/mL. For the same substance, the “IL-6 (Interleukin 6)” value [5, 14] was -0.44 pg/mL, the “IL-8 (Interleukin 8)” value [5, 14] was −12.6*** pg/mL and the “IR-IRA (Interleukin 1 Receptor Antagonist)” value (“IR-IRA” below) [5, 14] was −34.79** pg/mL. The “TIMP-1 (Tissue Inhibitor Metalloproteinases 1)” value [5, 14] was -17.26 ng/mL, the “TNF Receptor 2 (STNFR-2)” value [5, 14] was −2.0*** ng/mL and the “VCAM (Vascular Cell Adnhesion Molecule)” value [5, 14] was −94.2*** ng/mL. For the same substance, the “Alkaline Phosphatase” value [5, 15] was −7.25* IU/L, the “Apolipoprotein A1S” value [5, 15] was 2.3 mg/dL and the “Aspartate Aminotransferase (AST) s” value [5, 15] was −13.0 U/L. For the same substance, the “CCL2 (Monocyte Chemotactic Protein-1)” value [5, 15] was -179.0 pg/mL, the “CCL3 (Macrophage Inflammatory Protein-1 Alpha)” value [5, 15] was −8.0*** pg/mL and the “CCL5 (RANTES)” value [5, 15] was −25.3. The “CCL11 (Eosinophil Chemotactic Protein)” value [5, 15] was -16.25 pg/mL, the “CCL18 (Macrophage Inflammatory Protein-4)” value [5, 15] was −48.0** ng/mL and the “EN RAGE (Receptor Advanced Glycation End-Products)” value [5, 15] was −169.0* ng/mL. For the same substance, the “Gamma Glutamyl Transferase (GGT) s” value [5, 15] was −6.13 U/L, the “IL-1 (Interleukin 1) Beta” value [5, 15] was 0.00 pg/mL and the “IL-6 (Interleukin 6)” value [5, 15] was -0.30 pg/mL. The “IL-8 (Interleukin 8)” value [5, 15] was −4.25** pg/mL, the “IR-IRA” value [5, 15] was -26.25 pg/mL and the “TIMP-1 (Tissue Inhibitor Metalloproteinases 1)” value [5, 15] was -25.3 ng/mL. The “TNF Receptor 2 (STNFR-2)” value [5, 15] was −2.7*** ng/mL, the “VCAM (Vascular Cell Adnhesion Molecule)” value [5, 15] was −81.0* ng/mL and the “ALT, mean change” value [5, 9] was −29.3 U/L. For the same substance, the “ALT, mean after treatment” value ([5]; 350 mg, patients with baseline elevated ALT (n=8), baseline 83.7) was 54.3 U/L, the CCL2 level ([5]; 700 mg SC weekly) was “balanced or increased levels” and the CCL3 level ([5]; 700 mg SC weekly) was “balanced or increased levels”. For the same substance, the CCL11 level ([5]; 700 mg SC weekly) was “balanced or increased levels”, the CCL18 level ([5]; 700 mg SC weekly) was “balanced or increased levels” and the “Apolipoprotein A1” value [5, 11] was “Improvements”. For the same substance, the HDL [5, 11] was “strong increase”, the tolerability ([6]; Part 1 (700 mg) and Part 2 (350 mg)) was “generally well tolerated” and the “grade 3 or higher drug related treatment emergent adverse event” value ([6]; Part 1 and Part 2) was “no”. For the same substance, the “Injection site reaction and mild diarrhea, frequency vs placebo” value ([6]; not associated with discontinuation) was “occurred more frequently” and the “HIV-1 entry and replication” value (HIV-1) was “potently inhibits”.
For “semaglutide [Placebo + Semaglutide, reference compound]”, the “MRI PDFF” value (hepatic fat fraction; [16]) was −1.85%, the “MRI cT1” value [4, 16] was −4.40 and the “Alanine Aminotransferase (ALT) s” value [5, 17] was −3.6 U/L. The Alpha-2-Mactoglobulin s [5, 17] was -11.6 mg/mL, the “Apolipoprotein A1 s” value [5, 17] was -4.0 mg/dL and the “Aspartate Aminotransferase (AST) s” value [5, 17] was −2.8 U/L. For the same substance, the “CCL2 (Monocyte Chemotactic Protein-1)” value [5, 17] was -6.00 pg/mL, the “CCL3 (Macrophage Inflammatory Protein-1 Alpha)” value [5, 17] was -1.2 pg/mL and the “CCL5 (RANTES)” value [5, 17] was 1.2. For the same substance, the “CCL11 (Eosinophil Chemotactic Protein)” value [5, 17] was 0.20 pg/mL, the “CCL18 (Macrophage Inflammatory Protein-4)” value [5, 17] was 4.80 ng/mL and the “High Density Lipoprotein Cholesterol (HDL)” value [5, 17] was -1.0 mg/dL. The “IL-6 (Interleukin 6)” value [5, 17] was 0.34 pg/mL, the “IR-IRA” value [5, 17] was 26.6 pg/mL and the “TNF Receptor 2 (STNFR-2)” value [5, 17] was 0.52 ng/mL. The “VCAM (Vascular Cell Adnhesion Molecule)” value [5, 17] was -35.6 ng/mL and the “VEGF (Vascular Endothelian Growth Factor)” value [5, 17] was -11.2 pg/mL.
